Among the targets are CLK4 (Mus musculus, UniProt O35493); CLK2 (Mus musculus, UniProt O35491); CLK1 (Mus musculus, UniProt P22518); CLK3 (Mus musculus, UniProt O35492).
Holding throughout (experiment): Protein kinase assay
Another assay concerns the target CDK1/cyclin B. It counts as biochemical, starfish. Particulars: 15 μmol/L ATP.
The target of another assay is DYRK1B (Homo sapiens, UniProt Q9Y463). It counts as biochemical. Particulars: 15 μmol/L ATP.
The target in another assay is T1, DYRK2 (Homo sapiens, UniProt Q92630).
T1 sequence (Q92630 1-601): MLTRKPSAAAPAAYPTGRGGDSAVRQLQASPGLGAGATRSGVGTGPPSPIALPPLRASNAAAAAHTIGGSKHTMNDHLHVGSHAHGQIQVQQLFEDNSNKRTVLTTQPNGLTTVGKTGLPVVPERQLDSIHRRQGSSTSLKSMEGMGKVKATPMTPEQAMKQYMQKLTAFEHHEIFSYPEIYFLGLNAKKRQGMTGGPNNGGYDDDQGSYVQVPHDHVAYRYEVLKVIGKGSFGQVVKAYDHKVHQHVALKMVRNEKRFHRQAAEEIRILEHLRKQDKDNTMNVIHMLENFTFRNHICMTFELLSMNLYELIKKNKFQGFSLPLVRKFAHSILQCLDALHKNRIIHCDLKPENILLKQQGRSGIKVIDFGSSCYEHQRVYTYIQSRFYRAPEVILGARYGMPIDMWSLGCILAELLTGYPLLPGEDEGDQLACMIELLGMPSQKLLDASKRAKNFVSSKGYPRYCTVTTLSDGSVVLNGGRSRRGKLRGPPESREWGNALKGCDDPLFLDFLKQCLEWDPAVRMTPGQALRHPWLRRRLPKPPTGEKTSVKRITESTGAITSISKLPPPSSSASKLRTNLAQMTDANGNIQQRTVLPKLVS
It counts as biochemical. Particulars: 15 μmol/L ATP; read-out: IC50 DYRK2.

A further assay addresses CK1δ/ε. It is filed as biochemical, porcine. Particulars: 15 μmol/L ATP. As to the method:
(§1) CK1δ/ε (porcine brain, native) and LmCK1 (leishmania major, recombinant, expressed in E. coli as HIS fusion proteins) was assayed as described for CDK1 but in buffer C and using 25 μM CKS peptide ([…]pSAYSITA), a CK1-specific substrate.

The target of another assay is DYRK1A (Homo sapiens, UniProt Q13627). It is filed as biochemical. To be noted: 15 μmol/L ATP.
A further assay has as its target GSK-3α/β. It is filed as biochemical, porcine. To be noted: 15 μmol/L ATP.
The next assay has as its target CDK9/cyclin T (Homo sapiens, UniProt P50750). Particulars: 15 μmol/L ATP.
A further assay concerns the target T2, DYRK3 (Homo sapiens, UniProt O43781).
T2 sequence (O43781 1-588): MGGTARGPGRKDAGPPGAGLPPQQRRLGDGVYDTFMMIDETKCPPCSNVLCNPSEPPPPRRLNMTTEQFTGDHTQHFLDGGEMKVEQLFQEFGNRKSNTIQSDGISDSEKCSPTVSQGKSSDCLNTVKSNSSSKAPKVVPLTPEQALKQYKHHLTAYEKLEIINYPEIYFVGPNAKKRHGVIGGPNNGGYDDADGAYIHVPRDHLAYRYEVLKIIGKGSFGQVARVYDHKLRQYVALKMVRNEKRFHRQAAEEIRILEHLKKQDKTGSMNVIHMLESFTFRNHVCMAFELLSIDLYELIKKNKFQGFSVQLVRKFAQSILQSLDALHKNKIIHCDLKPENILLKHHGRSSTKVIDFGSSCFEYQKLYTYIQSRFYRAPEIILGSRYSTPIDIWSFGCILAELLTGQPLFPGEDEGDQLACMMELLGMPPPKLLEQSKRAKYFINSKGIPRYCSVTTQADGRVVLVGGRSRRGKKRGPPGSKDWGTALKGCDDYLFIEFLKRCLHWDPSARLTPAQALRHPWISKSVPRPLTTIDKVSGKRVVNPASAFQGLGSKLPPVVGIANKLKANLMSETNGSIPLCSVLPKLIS
It is filed as biochemical. To be noted: 15 μmol/L ATP; read-out: IC50 DYRK3.

For a further assay, the target named is LmCK1 (Leishmania major, UniProt Q9NHE1). It counts as biochemical. Particulars: 15 μmol/L ATP; read-out: IC50 LmCK1. As to the method:
as §1

For another assay, the target named is T3, PfGSK-3 (Plasmodium falciparum, UniProt O77344).
T3 sequence (O77344 1-440): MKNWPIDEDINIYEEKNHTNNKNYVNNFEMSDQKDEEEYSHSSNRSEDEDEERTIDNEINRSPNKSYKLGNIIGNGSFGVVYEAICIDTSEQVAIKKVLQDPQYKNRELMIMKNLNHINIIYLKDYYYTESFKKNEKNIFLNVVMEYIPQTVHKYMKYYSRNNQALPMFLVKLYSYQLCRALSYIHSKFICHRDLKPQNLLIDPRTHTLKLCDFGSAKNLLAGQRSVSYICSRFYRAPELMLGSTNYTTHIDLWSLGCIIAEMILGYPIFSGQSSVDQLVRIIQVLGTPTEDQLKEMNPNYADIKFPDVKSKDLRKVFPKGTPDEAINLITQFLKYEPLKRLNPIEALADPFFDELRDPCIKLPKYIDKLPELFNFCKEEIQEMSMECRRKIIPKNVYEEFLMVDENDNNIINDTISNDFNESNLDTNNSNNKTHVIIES
It counts as biochemical. Particulars: 15 μmol/L ATP; read-out: IC50 PfGSK-3. As to the method: The parasitic kinase genes (Supplementary Data, Table S3) were optimized for expression in E. coli, synthesized, and cloned in pGEX-6P-1 (GE Healthcare, Sigma-Aldrich, St. Quentin Fallavier, France) with the type II restriction enzymes BamHI and XhoI for glutathione S-transferase (GST) fusion at the N-terminus (GenScript). Plasmids were transformed into chemically competent E. coli BL21(DE3), which were grown overnight at 37 °C in 2 × YT medium containing 100 μg/mL ampicillin. These cultures were used to inoculate 1 L volumes of 2 × YT medium (containing 100 μg/mL ampicillin) in 5 L flasks. The cultures were allowed to grow at 37 °C before the temperature was decreased to 18 °C. At an optical density at 600 nm (OD600) of about 1.0, protein expression was induced overnight at 18 °C with 0.1 mM isopropyl β-D-1-thiogalactopyranoside (IPTG). The bacteria were harvested by centrifugation and were frozen at −20 °C.
Cells were resuspended in a lysis buffer (PBS pH 7.4, 1% NP40, 1 mM DTT, 1 mM EDTA, 1 mM PMSF) in the presence of protease inhibitor cocktail (Roche), and lysozyme was added to 1 mg/mL and incubated 1 h at 4 °C with gentle agitation. Cells were then sonicated on ice before 6 mM MgCl2 and 25 U/mL benzonase (Novagen, Merck Millipore, Fontenay sous Bois, France) were added to degrade nucleic acids and decrease sample viscosity. After centrifugation at 4 °C, the soluble fraction was collected and proteins were bound to Glutathione sepharose 4B beads (GE Healthcare). Beads were washed three times with lysis buffer and once with modified buffer C (25 mM MOPS pH 7.0, 60 mM β-glycerophosphate, 15 mM p-nitrophenylphosphate, 15 mM EGTA, 15 mM MgCl2, 2 mM DTT, 1 mM sodium vanadate). Proteins were eluted with elution buffer (buffer C containing 30 mM reduced glutathione, 15% glycerol, and pH adjusted to 8.5).

Another assay has as its target T4, CDK2/cyclin A (Homo sapiens, UniProt P24941).
T4 construct: made in house
It counts as biochemical. Particulars: 15 μmol/L ATP; read-out: IC50 CDK2/cyclin A.

The next assay addresses T5, CDK5/p25 (Homo sapiens, UniProt Q00535).
T5 construct: made in house
It is filed as biochemical. Particulars: 15 μmol/L ATP; read-out: IC50 CDK5/p25.

Where [1] appears, read: read-out: IC50 CLK4, 15 μmol/L ATP.
The mark [2] stands for this setting: read-out: IC50 CLK2, 15 μmol/L ATP.
[3] abbreviates: read-out: IC50 CLK1, 15 μmol/L ATP.
[4] abbreviates: read-out: IC50 CLK3, 15 μmol/L ATP.

SMILES strings stand for the structures. Like-named read-outs stand apart in the source and are kept apart here.

Chain of CDK9/cyclin T (P50750 whole entry): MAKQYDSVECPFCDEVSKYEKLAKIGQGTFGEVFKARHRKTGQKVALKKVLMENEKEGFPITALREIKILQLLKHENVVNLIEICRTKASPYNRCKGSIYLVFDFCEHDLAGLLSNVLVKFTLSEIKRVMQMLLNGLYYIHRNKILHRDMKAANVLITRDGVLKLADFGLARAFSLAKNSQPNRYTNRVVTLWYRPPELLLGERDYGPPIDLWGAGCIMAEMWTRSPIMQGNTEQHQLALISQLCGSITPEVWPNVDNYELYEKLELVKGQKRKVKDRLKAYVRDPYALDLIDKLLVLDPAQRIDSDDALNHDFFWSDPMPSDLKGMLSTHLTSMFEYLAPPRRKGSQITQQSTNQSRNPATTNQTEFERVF
Chain of CDK9/cyclin T (O60563 whole entry partner): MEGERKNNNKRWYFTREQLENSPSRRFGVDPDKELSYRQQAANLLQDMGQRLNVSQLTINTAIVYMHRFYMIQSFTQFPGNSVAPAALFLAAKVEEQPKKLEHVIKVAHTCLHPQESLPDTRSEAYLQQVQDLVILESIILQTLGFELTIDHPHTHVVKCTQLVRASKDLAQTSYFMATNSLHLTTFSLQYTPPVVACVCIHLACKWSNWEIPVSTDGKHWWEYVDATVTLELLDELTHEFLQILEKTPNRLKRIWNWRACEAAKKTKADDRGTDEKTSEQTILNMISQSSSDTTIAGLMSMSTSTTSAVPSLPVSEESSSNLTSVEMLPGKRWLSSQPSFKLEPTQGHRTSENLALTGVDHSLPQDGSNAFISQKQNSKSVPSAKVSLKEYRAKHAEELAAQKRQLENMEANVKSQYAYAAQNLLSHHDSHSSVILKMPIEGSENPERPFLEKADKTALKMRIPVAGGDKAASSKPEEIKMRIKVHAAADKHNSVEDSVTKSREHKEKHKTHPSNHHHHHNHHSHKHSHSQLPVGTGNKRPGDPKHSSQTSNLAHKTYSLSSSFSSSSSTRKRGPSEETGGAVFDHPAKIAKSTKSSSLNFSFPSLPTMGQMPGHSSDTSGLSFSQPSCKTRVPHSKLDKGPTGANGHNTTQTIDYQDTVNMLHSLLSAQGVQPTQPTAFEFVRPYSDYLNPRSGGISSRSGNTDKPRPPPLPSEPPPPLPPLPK
Chain of CLK4 (O35493 whole entry): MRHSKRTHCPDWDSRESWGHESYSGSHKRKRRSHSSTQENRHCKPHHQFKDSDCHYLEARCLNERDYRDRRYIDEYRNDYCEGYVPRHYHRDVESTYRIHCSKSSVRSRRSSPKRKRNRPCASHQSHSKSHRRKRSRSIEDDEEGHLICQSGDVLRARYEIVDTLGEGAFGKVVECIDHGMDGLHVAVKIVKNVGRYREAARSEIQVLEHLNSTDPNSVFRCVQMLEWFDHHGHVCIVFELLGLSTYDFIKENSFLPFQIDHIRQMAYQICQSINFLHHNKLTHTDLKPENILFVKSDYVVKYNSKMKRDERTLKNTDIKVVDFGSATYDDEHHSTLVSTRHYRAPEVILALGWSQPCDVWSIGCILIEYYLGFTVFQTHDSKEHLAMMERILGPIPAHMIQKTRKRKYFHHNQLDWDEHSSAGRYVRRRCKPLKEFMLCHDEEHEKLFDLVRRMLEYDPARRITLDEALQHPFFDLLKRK
T5 sequence (Q00535 whole entry): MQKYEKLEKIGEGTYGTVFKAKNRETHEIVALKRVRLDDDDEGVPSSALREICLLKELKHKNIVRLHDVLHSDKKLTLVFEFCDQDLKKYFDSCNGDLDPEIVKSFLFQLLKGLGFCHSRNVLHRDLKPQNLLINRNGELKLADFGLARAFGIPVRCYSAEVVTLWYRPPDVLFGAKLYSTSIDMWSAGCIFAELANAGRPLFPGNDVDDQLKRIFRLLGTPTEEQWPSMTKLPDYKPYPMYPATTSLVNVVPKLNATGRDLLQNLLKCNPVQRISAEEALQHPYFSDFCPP
T5 sequence (Q15078 99-307 partner limits assumed): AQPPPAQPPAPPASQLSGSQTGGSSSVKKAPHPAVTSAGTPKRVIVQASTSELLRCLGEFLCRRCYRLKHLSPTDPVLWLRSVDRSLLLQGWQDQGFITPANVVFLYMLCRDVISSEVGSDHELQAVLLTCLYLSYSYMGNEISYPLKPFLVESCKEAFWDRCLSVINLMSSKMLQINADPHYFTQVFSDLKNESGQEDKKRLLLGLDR
Chain of CLK2 (O35491 whole entry): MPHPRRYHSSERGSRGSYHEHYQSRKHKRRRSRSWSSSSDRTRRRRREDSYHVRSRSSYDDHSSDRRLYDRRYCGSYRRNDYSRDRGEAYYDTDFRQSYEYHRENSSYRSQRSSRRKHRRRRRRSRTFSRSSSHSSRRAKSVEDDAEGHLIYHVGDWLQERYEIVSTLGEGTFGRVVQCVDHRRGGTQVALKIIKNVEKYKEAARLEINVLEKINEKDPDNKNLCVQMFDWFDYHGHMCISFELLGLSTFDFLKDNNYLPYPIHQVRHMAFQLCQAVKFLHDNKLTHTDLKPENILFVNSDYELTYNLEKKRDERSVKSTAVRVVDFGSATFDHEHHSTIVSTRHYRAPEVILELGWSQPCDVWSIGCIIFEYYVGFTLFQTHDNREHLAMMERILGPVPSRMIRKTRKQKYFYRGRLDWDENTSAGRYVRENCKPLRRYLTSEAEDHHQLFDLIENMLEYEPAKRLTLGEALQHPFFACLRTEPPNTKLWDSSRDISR
Chain of LmCK1 (Q9NHE1 entry or part of it): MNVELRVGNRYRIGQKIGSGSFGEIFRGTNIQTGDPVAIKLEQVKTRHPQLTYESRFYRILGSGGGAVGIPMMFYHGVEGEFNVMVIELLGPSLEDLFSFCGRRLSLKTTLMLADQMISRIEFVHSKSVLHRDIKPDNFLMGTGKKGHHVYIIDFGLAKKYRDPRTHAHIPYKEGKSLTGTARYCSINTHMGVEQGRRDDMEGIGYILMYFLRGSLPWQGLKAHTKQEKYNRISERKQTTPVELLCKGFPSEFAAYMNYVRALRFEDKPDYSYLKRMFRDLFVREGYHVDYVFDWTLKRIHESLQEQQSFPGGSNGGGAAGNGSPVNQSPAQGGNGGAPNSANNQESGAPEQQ
Chain of CLK1 (P22518 whole entry): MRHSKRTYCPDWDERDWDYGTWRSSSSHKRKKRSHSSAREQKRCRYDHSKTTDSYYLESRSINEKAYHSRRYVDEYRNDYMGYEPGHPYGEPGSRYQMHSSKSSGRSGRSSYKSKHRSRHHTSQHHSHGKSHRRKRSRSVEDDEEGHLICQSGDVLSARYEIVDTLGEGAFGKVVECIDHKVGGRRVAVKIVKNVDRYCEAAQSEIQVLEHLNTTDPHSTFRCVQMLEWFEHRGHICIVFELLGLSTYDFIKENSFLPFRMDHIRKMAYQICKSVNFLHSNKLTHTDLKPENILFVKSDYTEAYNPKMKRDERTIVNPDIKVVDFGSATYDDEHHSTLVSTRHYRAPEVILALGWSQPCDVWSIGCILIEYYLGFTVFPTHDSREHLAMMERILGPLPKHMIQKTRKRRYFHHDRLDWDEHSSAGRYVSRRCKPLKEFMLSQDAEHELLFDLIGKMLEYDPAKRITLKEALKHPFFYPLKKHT
Chain of CLK3 (O35492 whole entry): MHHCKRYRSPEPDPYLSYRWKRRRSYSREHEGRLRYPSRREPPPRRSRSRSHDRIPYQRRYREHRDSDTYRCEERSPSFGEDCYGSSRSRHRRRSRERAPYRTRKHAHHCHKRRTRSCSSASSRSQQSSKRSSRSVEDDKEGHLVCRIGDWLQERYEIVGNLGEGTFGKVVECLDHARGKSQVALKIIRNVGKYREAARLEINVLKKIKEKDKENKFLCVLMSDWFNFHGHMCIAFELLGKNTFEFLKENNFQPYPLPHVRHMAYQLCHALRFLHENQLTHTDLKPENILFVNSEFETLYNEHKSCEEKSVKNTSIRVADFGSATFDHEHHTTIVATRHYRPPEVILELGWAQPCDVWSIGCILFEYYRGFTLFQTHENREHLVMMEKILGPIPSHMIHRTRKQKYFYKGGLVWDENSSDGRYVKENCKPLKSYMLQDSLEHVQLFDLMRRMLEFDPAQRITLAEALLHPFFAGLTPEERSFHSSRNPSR
Chain of DYRK1B (Q9Y463 whole entry): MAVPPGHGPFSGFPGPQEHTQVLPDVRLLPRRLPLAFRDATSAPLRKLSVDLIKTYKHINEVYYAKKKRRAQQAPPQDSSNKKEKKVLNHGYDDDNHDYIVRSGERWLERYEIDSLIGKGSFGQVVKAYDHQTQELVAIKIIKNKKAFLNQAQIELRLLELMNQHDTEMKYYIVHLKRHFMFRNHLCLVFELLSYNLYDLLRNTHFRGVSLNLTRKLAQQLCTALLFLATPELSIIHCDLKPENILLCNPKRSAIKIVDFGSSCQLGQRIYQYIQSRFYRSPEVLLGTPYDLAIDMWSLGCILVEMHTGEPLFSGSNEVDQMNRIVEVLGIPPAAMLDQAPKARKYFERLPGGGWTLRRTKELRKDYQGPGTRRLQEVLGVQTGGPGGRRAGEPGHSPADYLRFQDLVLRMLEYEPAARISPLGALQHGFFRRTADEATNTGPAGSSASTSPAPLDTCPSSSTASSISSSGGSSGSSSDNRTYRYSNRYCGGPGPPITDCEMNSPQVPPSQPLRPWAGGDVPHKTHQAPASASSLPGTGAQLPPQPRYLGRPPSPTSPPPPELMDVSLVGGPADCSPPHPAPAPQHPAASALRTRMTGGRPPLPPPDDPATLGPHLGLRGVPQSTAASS

As to `COc1cc(/C=C2\N=C(N)NC2=O)ccc1O` [PAC1, polyandrocarpamine A], the IC50 against CDK1/cyclin B was greater than 10 µM; at DYRK1B, 0.4 µM; at DYRK2, 0.14 µM; at CK1δ/ε (listed as 1), 5.2 µM; at DYRK1A it was 0.23 µM; against CLK4 (IC50 CLK4, 15 μmol/L ATP), 0.4 µM. Further, the IC50 against CLK2 (IC50 CLK2, 15 μmol/L ATP) is 1.2 µM; against GSK-3α/β it was greater than 10 µM; against CDK9/cyclin T (IC50 CDK9/cyclin T) it was 1.1 µM; on CLK1 (IC50 CLK1, 15 μmol/L ATP) it was 0.43 µM; at DYRK3 it was 0.28 µM; on CLK3 (IC50 CLK3, 15 μmol/L ATP), 2.3 µM.

For the molecule `NC1=N/C(=C\c2ccc(O)c(O)c2)C(=O)N1` [PAC2, polyandrocarpamine B], the IC50 on DYRK1B is 1.1 µM; on DYRK2 it was 0.48 µM; at DYRK1A, 0.75 µM; on CLK4 (IC50 CLK4, 15 μmol/L ATP), 0.95 µM; on CLK2 (IC50 CLK2, 15 μmol/L ATP), 2.5 µM; against CDK9/cyclin T (IC50 CDK9/cyclin T), 2 µM. Also, the IC50 at DYRK3 was 0.9 µM; against CLK3 (IC50 CLK3, 15 μmol/L ATP), 9.2 µM.

For the molecule `NC1=NC(=Cc2cccc(Br)c2)C(=O)N1` [PAC3], the IC50 against CDK1/cyclin B is greater than 10 µM; at DYRK1B, 8.2 µM; at DYRK2, 2.2 µM; at LmCK1 it was greater than 10 µM; at CK1δ/ε, no less than 10 µM; on PfGSK-3, greater than 10 µM. Moreover, the IC50 was no less than 10 µM at CDK2/cyclin A; greater than 10 µM at CDK5/p25; 2.1 µM against DYRK1A; 2.3 µM on CLK4 (setting [1]); 6.3 µM at CLK2 (setting [2]); greater than 10 µM on GSK-3α/β. The IC50 on CDK9/cyclin T (read-out: IC50 CDK9/cyclin T) was greater than 10 µM; at CLK1 (setting [3]), 2.2 µM; at DYRK3, greater than 10 µM; at CLK3 (setting [4]), greater than 10 µM.

For the molecule `COc1ccc(C=C2N=C(N)NC2=O)cc1F` [PAC4], the IC50 at CDK1/cyclin B is greater than 10 µM; against DYRK1B, greater than 10 µM; on DYRK2, 4.5 µM; on LmCK1 it was greater than 10 µM; on CK1δ/ε it was no less than 10 µM; at PfGSK-3, greater than 10 µM. Further, the IC50 at CDK2/cyclin A was no less than 10 µM; on CDK5/p25, greater than 10 µM; on DYRK1A, 4 µM; at CLK4 (setting [1]) it was no less than 10 µM; on CLK2 (setting [2]), greater than 10 µM; against GSK-3α/β it was greater than 10 µM. For the same molecule, the IC50 at CDK9/cyclin T (read-out: IC50 CDK9/cyclin T) was greater than 10 µM; on CLK1 (setting [3]), no less than 10 µM; at DYRK3, 5.1 µM; on CLK3 (setting [4]) it was greater than 10 µM.

With `COc1cc(C=C2N=C(N)NC2=O)ccc1F` [PAC5], the IC50 was greater than 10 µM against CDK1/cyclin B; 6.1 µM against DYRK1B; 0.64 µM on DYRK2; greater than 10 µM at LmCK1; greater than 10 µM at CK1δ/ε; greater than 10 µM on PfGSK-3. Moreover, the IC50 was greater than 10 µM on CDK2/cyclin A; greater than 10 µM at CDK5/p25; 1.3 µM on DYRK1A; 2.4 µM on CLK4 (setting [1]); 7.5 µM at CLK2 (setting [2]); greater than 10 µM against GSK-3α/β. The IC50 was no less than 10 µM on CDK9/cyclin T (read-out: IC50 CDK9/cyclin T), 2.2 µM on CLK1 (setting [3]), 5.7 µM on DYRK3 and greater than 10 µM at CLK3 (setting [4]).

Take `COc1cc(/C=C2\N=C(N)NC2=O)ccc1O` [PAC12, polyandrocarpamine A]: the IC50 on DYRK1B is 0.47 µM; at DYRK2, 0.24 µM; on CK1δ/ε (listed as 12) it was 5 µM; against DYRK1A it was 0.3 µM; against CLK4 (IC50 CLK4, 15 μmol/L ATP) it was 0.47 µM; on CLK2 (IC50 CLK2, 15 μmol/L ATP) it was 0.64 µM. The IC50 on CDK9/cyclin T (IC50 CDK9/cyclin T) turned out to be 0.9 µM; on CLK1 (IC50 CLK1, 15 μmol/L ATP) it was 0.47 µM; on DYRK3, 0.34 µM; against CLK3 (IC50 CLK3, 15 μmol/L ATP) it was 2.7 µM.

`NC1=N/C(=C\c2ccc(O)c(O)c2)C(=O)N1` [PAC13, polyandrocarpamine B]: the IC50 against DYRK1B was 0.96 µM; at DYRK2 it was 0.38 µM; against DYRK1A, 0.59 µM; at CLK4 (IC50 CLK4, 15 μmol/L ATP) it was 0.91 µM; against CLK2 (IC50 CLK2, 15 μmol/L ATP) it was 2.42 µM; at CDK9/cyclin T (IC50 CDK9/cyclin T), 1.8 µM. Further, the IC50 on DYRK3 came out at 0.68 µM; against CLK3 (IC50 CLK3, 15 μmol/L ATP), 10 µM.

The values are drawn from article PMC5666424, “Marine-Derived 2-Aminoimidazolone Alkaloids. Leucettamine B-Related Polyandrocarpamines Inhibit Mammalian and Protozoan DYRK & CLK Kinases” (Marine Drugs, 2017).
